Tests used:
HDAC2 = HDAC2 (Homo sapiens, UniProt Q92769); test: Immunoblot HDAC2 degradation in MM.1S cell lysates; format: cell-based; set-up: endogenous in cells; host or cells: MM.1S; details: MM1.S, MM.1S cells, 24 h, read-out: maximal degradation (Dmax) HDAC2
Procedure: (§1) Figure 6 Examination of HDAC isoform degradation. MM.1S cells were treated with the indicated compounds (10 μM) or vehicle (DMSO) for 24 h. HDAC1, 2, 4, and 6 levels were analyzed by immunoblotting. (A) Representative images from a total of n=3 biological replicates. […]
(§2) The cell lysis was performed as descripted in 3.2. Simple Western Immunoassay. Samples were denatured by Laemmli 2× Concentrate (Catalog# S3401-10VL, Sigma-Aldrich) for 5 min at 95 °C, and Precision Plus Protein Unstained Standard was used as molecular weight marker (Catalog# 1610363, Bio-Rad, Hercules, CA, USA). SDS-PAGE was performed with 10 or 12% Mini-PROTEAN TGX Stain-Free Gel (Catalog# 458035, Bio -Rad) at 200 V for 50 min (Catalog# 458035, Bio -Rad).
(§3) Afterwards, proteins were transferred with the Trans -Blot Turbo Transfer System (Catalog# 1704150, Bio-Rad) to Immobilon-FL PVDF membranes (Catalog# IPFL00005, Mill ipore Merck, Burlington, MA, USA) at 1.0 A for 30 min and treated with 5% milk-powder solution for 1 h at room temperature under slight agitation. […] The ChemiDoc XRS+ System (Catalog# 1708265 , Bio-Rad) was used for detection and Image Lab Software 6.1 (Bio-Rad) for quantification. […]

HDAC4 = HDAC4 (Homo sapiens, UniProt P56524); test: Immunoblot HDAC4 degradation in MM.1S cell lysates; format: cell-based; set-up: endogenous in cells; host or cells: MM.1S; details: MM1.S, MM.1S cells, 24 h, read-out: maximal degradation (Dmax) HDAC4
Procedure: as §1, §2, §3

Sequence of HDAC2 (Q92769 whole entry, canonical isoform): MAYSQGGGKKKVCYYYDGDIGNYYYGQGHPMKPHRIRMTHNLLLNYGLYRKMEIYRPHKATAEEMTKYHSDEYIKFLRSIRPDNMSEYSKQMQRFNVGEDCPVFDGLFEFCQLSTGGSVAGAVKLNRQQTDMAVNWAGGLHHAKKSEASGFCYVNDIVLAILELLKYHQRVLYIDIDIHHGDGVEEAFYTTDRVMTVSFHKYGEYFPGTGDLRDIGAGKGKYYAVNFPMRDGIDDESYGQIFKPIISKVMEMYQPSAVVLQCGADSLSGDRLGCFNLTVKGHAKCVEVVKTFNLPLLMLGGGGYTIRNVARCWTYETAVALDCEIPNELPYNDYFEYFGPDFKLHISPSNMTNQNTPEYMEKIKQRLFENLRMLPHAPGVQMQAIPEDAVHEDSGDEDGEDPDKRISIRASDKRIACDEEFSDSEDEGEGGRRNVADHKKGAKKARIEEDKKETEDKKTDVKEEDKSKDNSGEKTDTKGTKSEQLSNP
Sequence of HDAC4 (P56524 whole entry): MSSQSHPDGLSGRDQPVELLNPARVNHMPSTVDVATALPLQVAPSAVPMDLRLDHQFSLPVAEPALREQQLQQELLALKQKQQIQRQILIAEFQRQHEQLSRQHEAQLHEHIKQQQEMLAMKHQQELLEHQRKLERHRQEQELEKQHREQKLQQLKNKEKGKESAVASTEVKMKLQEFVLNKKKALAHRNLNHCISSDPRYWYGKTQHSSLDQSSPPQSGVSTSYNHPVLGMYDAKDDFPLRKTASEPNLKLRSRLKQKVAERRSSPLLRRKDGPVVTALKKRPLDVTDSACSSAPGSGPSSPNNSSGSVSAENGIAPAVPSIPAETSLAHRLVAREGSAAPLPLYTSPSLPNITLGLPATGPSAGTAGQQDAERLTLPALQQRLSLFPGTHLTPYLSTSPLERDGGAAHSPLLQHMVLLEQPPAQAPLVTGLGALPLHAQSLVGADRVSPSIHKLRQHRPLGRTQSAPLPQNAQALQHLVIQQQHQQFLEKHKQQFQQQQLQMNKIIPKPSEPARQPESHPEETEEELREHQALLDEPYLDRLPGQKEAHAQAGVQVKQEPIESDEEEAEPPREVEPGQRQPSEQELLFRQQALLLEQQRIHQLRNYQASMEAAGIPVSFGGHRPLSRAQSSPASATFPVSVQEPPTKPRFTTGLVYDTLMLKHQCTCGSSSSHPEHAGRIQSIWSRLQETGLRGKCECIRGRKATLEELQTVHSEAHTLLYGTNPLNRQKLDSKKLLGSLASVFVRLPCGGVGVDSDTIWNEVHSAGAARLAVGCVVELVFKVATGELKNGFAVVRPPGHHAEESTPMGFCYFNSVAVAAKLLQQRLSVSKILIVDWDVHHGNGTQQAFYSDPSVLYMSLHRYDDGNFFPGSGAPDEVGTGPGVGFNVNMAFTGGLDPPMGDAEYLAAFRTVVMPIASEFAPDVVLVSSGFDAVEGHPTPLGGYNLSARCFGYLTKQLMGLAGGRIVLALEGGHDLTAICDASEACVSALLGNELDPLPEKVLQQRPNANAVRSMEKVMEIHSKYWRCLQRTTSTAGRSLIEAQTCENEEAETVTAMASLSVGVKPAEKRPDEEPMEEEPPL

Row | Dmax at 10 µM (HDAC2) [%] | Dmax at 10 µM (HDAC4) [%] | SMILES
1 | 71 to 76 | 71 to 76 | O=C(CCCCCCNC(=O)c1ccc(NC(=O)CCCCCCCCCCCN(C(=O)CCl)C(C(=O)NCc2ccccc2)c2ccc(Cl)c(Cl)c2)cc1)NO (stereo not shown) [Compound 1j]
2 | 51 | 40 | O=C(CCCCCCNC(=O)c1ccc(N(C(=O)CCl)C(C(=O)NCc2ccccc2)c2ccc(Cl)c(Cl)c2)cc1)NO (stereo not shown) [Compound 2]
